Assays:
ischemic rats [1] = experiment: Body swing test; assay type: in vivo, Sprague-Dawley (SD) rats; settings: 1 mg/kg, vs control group; 1, 7, 14 and 28 days after the injection, FIG. 19A
Text: (§1) The ischemic rats are induced by an ischemia-reperfusion model to simulate transient focal cerebral ischemia in rats. Test animals are male Sprague-Dawley (SD) rats weighing 250-300 g. The rats are anesthetized with chloral hydrate (0.4 g/kg IP) and subjected to cerebral ischemia. The ischemia-reperfusion model is induced by ligations of bilateral common carotid arteries (CCAs) and a right middle cerebral artery (MCA). The bilateral CCAs are clamped with non-traumatic arterial clips, and the right MCA is ligated with an 10-0 nylon suture. After 90 minutes ischemia, the suture on the MCA and the arterial clips on CCAs are removed to allow reperfusion. Core body temperature is monitored with a thermistor probe (Hewlett-Packard Model 21090A probe, Hewlett-Packard Company, Andover, Mass.), and maintained at 37° C. with a heating pad during anesthesia. After recovery from anesthesia, rat body temperature is maintained at 37° C. with a heat lamp. […]
The body swing test is used to assess body asymmetry after MCA ligation. Initially, the ischemic rats are suspended by their tail 10 cm above the cage floor, and lateral body movements are recorded. Specifically, the frequency with which the initial head swing contra-lateral to the ischemic side is counted in twenty consecutive tests and is normalized to the baseline score.

NSCs = experiment: Proliferation index (PI) measurement of CFSE-labelled NSCs by flow cytometry; assay type: cell-based, mice; settings: 1 μM for 16 hours; control group 4.37, FIG. 11C
Description: To prepare the NSCs, after removal of meninges, subventricular zones (SVZ) of lateral ventricles from adult mice brain (4 week-of-age) are aseptically isolated and dissociated as previously described (J Cell Sci 2006; 119, 4467-4474). All steps are operated under sterile conditions. Then, neurosphere culture are prepared in neurobasal (NB) medium (Gibco BRL) supplemented with 2% of B27 (Gibco BRL), 2 mM of L-glutamine (PAN Biotech), 100 U/ml of penicillin/0.1 mg/L of streptomycin (Gibco BRL). For maintenance and expansion of the cultures, the NB/B27 is further supplemented with 2 μg/mL of heparin (Sigma), 20 ng/mL of FGF-2 (R&D Systems) and 20 ng/mL of EGF (R&D Systems). Neurosphere cultures are maintained at 37° C. in a humidified incubator with 5% CO2. For clonal/low density cultures, primary neurospheres grown at high density are dissociated into a single cell suspension and reseeded into 96-well plates at 100 cells per ml of media and the number of newly formed neurospheres is counted after 7 days. In addition, the Bmi-1 expressions, SOX2 expressions, Nestin expressions, Musashi-1 expressions, BrdU expressions and ki-67 expressions of the newly formed neurospheres are determined by the immunofluorescence staining.
To analyze whet her he Compound 1 modulates the NSCs proliferation, this example examines the effect of the HIF-1α-Bmi-1 pathway on the self-renewal of the neurosphere. […]

ischemic rats [2] = experiment: Grip strength test; assay type: in vivo, Sprague-Dawley (SD) rats; settings: 1 mg/kg, vs control group, FIG. 20
Text: as §1, with “anesthesia.” for “anesthesia. After recovery from anesthesia, rat body temperature is maintained at 37° C. with a heat lamp.”
The grip strength is analyzed using Grip Strength Meter (TSE-Systems). In brief, the grip strength of each forelimb of the ischemic rat is measured separately from the mean of 20 pulls, and the ratio of ipsilateral grip strength to contralateral grip strength is calculated. In addition, the ratio of grip strength post-cell-treatment and pre-cell-treatment is also calculated, and the changes are presented as a percentage of the pre-cell-treatment value.

HIF-1α = HIF-1α expressions in the PCCs with hypoxic treatment, Western blot; assay type: cell-based, C57BL/6 mice; settings: 1 μM 2-ME2 for 16 hours, FIG. 6C
Description: Test cells are primary cortical cultures (PCCs) in this example. The PCCs are prepared from cerebral cortexes of gestation day 17 embryos from C57BL/6 mice as described previously (Cell Death Differ 2008; 15: 143-151). The PCCs are maintained under serum-free conditions in neurobasal medium (Invitrogen), supplemented with B-27 supplement (2%; invitrogen), glutamine (0.5 mM; Sigma Aldrich), glutamate ([…]; Sigma Aldrich), penicillin (100 U/ml) and streptomycin ([…]; Invitrogen). At 4 days in vitro, half of the medium is removed and replaced with fresh medium without glutamate. The cultures are maintained in a humidified incubator at 37° C. with 5% CO2. At 7 days in vitro, the PCCs are used for experimentation.
One group of the PCCs is transduced with LV-HIF-1α-sh (sc-35562-V, Santa Cruz Biotechnology) and LV-control-sh (sc-108080, Santa Cruz Biotechnology) by a lenti-viral infection to reduce the HIF-1α expressions. Another group of the PCCs is treated with 1 μM of 2-ME2 for 16 hours to reduce the HIF-1α expressions in the PCCs. In FIG. 6C, the HIF-1α expressions in the PCCs are decreased both in the LV-HIF-1α-sh transduced group and the 2-ME2 treated group.

Bmi-1 = Bmi-1 expressions of the brains of 2-ME2 treated ischemic rats, immunohistochemistry and Western blot; assay type: in vivo, Sprague-Dawley (SD) rats; settings: 2-ME2 50, 100 or 150 mg/kg intraperitoneal, dose-dependent manner, FIGS. 5B, 5C
Text: The ischemic rats are induced by an ischemia-reperfusion model to simulate transient focal cerebral ischemia in rats. Test animals are male Sprague-Dawley (SD) rats weighing 250-300 g. The rats are anesthetized with chloral hydrate (0.4 g/kg IP) and subjected to cerebral ischemia. The ischemia-reperfusion model is induced by ligations of bilateral common carotid arteries (CCAs) and a right middle cerebral artery (MCA). The bilateral CCAs are clamped with non-traumatic arterial clips, and the right MCA is ligated with an 10-0 nylon suture. After 90 minutes ischemia, the suture on the MCA and the arterial clips on CCAs are removed to allow reperfusion. Core body temperature is monitored with a thermistor probe (Hewlett-Packard Model 21090A probe, Hewlett-Packard Company, Andover, Mass.), and maintained at 37° C. with a heating pad during anesthesia. After recovery from anesthesia, rat body temperature is maintained at 37° C. with a heat lamp.
2-ME2 (Sigma Aldrich, USA) is dissolved in DMSO to obtain a 10 mmol/L solution. For in vivo experiments, the whole procedure is performed as previously described (Clin Cancer Res 2004, 10: 8665-8673). […]

COC(=O)C1=CO[C@@H](O)[C@@H]2C(COC(=O)[C@@H](N)Cc3ccccc3)=CC[C@H]12 [Compound 1]
neurological recovery in the body swing test (ischemic rats [1]): much more neurological recovery | proliferation index (PI) of the NSCs (NSCs): 6.77 | grip strength ratio (ischemic rats [2]): much better

COc1cc2c(cc1O)CC[C@@H]1[C@@H]2CC[C@]2(C)[C@@H](O)CC[C@@H]12 [Compound 2-ME2, 2-Methoxyestradiol, reference compound]
HIF-1α expressions in the PCCs (HIF-1α): decreased | upregulated Bmi-1 immunoreactivity and protein expressions after the cerebral ischemia (Bmi-1): suppressed

— patent publication US10035791B2, “Bicyclic compound and pharmaceutical composition thereof for treating stroke and use thereof” (China Medical University, priority 2016, dated 2018)
